Experimental findings from ChEMBL document CHEMBL5226286, “The application of isatin-based multicomponent-reactions in the quest for new bioactive and druglike molecules” (Eur J Med Chem, 2021) are described below.

≈ marks a conversion by molar mass, not a printed value. Bounds are passed on as bounds.

In one test the test system is PC-3. In words: Antiproliferative activity against human PC-3 cells. It counts as functional, cell-based.
A further test concerns LNCaP. In words: Antiproliferative activity against human LNCaP cells. Type of test: functional, cell-based.
The subject of test [1] is Tobacco mosaic virus. In words: Antiviral activity against Tobacco mosaic virus assessed as inactivation effect relative to control. Type of test: functional.
Test [2] concerns Tobacco mosaic virus. Put plainly: Antiviral activity against Tobacco mosaic virus assessed as curative effect relative to control. Type of test: functional.
Test [3] relates to Tobacco mosaic virus. In words: Antiviral activity against Tobacco mosaic virus assessed as protection effect relative to control. Type of test: functional.
For another test, the system named is MCF7. In words: Antiproliferative activity against human MCF7 cells by MTT reduction assay. It counts as functional, cell-based.
The subject of a further test is T47D. In words: Antiproliferative activity against human T47D cells by MTT reduction assay. It counts as functional, cell-based.
The next test concerns MDA-MB-231. In words: Antiproliferative activity against human MDA-MB-231 cells by MTT reduction assay. It counts as functional, cell-based.
The test system of another test is ECa-109 cell line. Put plainly: Antiproliferative activity against human EC109 cells. It counts as functional, cell-based.
The next test concerns SMMC-7721. Put plainly: Antiproliferative activity against human SMMC-7721 cells. Type of test: functional, cell-based.
A further test has as its system MGC-803. In words: Antiproliferative activity against human MGC-803 cells. Type of test: functional, cell-based.
Test [4] concerns Staphylococcus aureus. Put plainly: Antibacterial activity against Staphylococcus aureus by agar well diffusion method. Type of test: functional.
The test system of a further test is Bacillus subtilis. In words: Antibacterial activity against Bacillus subtilis by agar well diffusion method. Type of test: functional.
The test system of test [5] is Escherichia coli. Put plainly: Antibacterial activity against Escherichia coli by agar well diffusion method. Type of test: functional.
The subject of the next test is Salmonella sp. In words: Antibacterial activity against Salmonella sp. NCIM 2501 by microdilution broth method. It counts as functional.
Another test relates to Proteus vulgaris. In words: Antibacterial activity against Proteus vulgaris NCIM 2813 by microdilution broth method. It counts as functional.
The next test concerns Pseudomonas aeruginosa. Put plainly: Antibacterial activity against Pseudomonas aeruginosa NCIM 5029 by microdilution broth method. Type of test: functional.
Test [6] relates to Escherichia coli. Put plainly: Antibacterial activity against Escherichia coli NCIM 2931 by microdilution broth method. It counts as functional.
Test [7] has as its system Staphylococcus aureus. Put plainly: Antibacterial activity against Staphylococcus aureus NCIM5021 by microdilution broth method. It counts as functional.
The subject of another test is Leishmania major. In words: Antileishmanial activity against Leishmania major promastigotes incubated for 72 hrs by micrscopic analysis. Type of test: functional.
The subject of the next test is Proteus mirabilis. In words: microbe, parasite or virus in culture. Particulars: PTCC 1776.
The test system of test [8] is Staphylococcus epidermidis. In words: microbe, parasite or virus in culture. Particulars: PTCC 1435.
Description: Antimicrobial activity against Staphylococcus epidermidis PTCC 1435 by broth disk diffusion microdilution method
The target of test [9] is T1, NAD-dependent protein deacetylase sirtuin-2 (Homo sapiens, UniProt Q8IXJ6).
T1 sequence (Q8IXJ6 whole entry): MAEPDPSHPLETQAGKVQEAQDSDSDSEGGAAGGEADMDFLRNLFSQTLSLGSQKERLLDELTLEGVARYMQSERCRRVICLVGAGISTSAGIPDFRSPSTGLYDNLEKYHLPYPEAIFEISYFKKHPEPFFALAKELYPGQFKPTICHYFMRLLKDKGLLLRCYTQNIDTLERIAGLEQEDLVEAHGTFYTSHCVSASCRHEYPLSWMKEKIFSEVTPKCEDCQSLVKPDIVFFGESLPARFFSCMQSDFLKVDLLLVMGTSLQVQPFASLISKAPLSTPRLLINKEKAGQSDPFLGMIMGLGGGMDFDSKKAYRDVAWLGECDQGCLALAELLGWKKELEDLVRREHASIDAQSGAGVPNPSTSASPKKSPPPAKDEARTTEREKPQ
Put plainly: Inhibition of sirtuin 2 (unknown origin).

Another test deals with A549. In words: Anticancer activity against human A549 cells by MTT assay. Type of test: functional, cell-based.
The next test has as its system K562. In words: Anticancer activity against human K562 cells by MTT assay. Type of test: functional, cell-based.
The test system of the next test is Candida albicans. In words: Antifungal activity against Candida albicans MTCC 227. Type of test: functional.
The subject of a further test is Saccharomyces cerevisiae. In words: Antifungal activity against Saccharomyces cerevisiae MTCC 170. Type of test: functional.

Description for Proteus mirabilis: Antimicrobial activity against Proteus mirabilis PTCC 1776 by broth disk diffusion microdilution method

Take `O=C1c2ccccc2C2Oc3c(c(=O)oc4ccccc34)C3(C(=O)N(c4ccc(Cl)cc4)c4ccccc43)C12` (stereo not drawn): the results for the IC50 with PC-3 and in the test on LNCaP were 0.08 µM and 1.3 µM, respectively.
Take `CN1C[C@@H](c2ccccc2)[C@@]2(Oc3cc(O)ccc3C2=O)[C@@]12C(=O)N(Cc1ccccc1)c1ccccc12`: the Activity in the test on Tobacco mosaic virus [1] was 57.1%; in the test with Tobacco mosaic virus [2], 52.3%; with Tobacco mosaic virus [3] it was 50.9%.
For `O=C(c1ccc(OCCN2CCC2)cc1)[C@H]1[C@H](c2ccccc2)C2CS[C@H](c3ccccc3)N2C12C(=O)Nc1ccc(Cl)cc12` (stereo partly drawn), the IC50 was found to be 3.7 µM with MCF7, 4.7 µM in the test on T47D and 4.2 µM in the test on MDA-MB-231.
As to `C[C@]12CC[C@H](O)CC1=CCC1C2CC[C@@]2(C)C1CC[C@@H]2C1=CC2(C(=O)Nc3ccc(Cl)cc32)C(C#N)=C(N)N1` (stereo partly drawn), the IC50 in the test with ECa-109 cell line was 3.8 µM; with SMMC-7721 it was 9.6 µM; with MGC-803, 4.2 µM.
As for `CC1(C)CC(=O)C2=C(C1)N(c1ccc(Cl)cc1)C(=O)C21C2=C(Nc3ccccc31)c1ccccc1C2=O` (stereo not drawn), the MIC is 16 µg/mL (≈ 31.6 µM) against Staphylococcus aureus [4], 8 µg/mL (≈ 15.8 µM) in the test with Bacillus subtilis and 64 µg/mL (≈ 126 µM) against Escherichia coli [5].
For the molecule `COc1ccc(CO[C@]2([C@@]3(O)C(=O)Nc4ccccc43)C(=O)Nc3ccccc32)cc1`, the MIC against Salmonella sp. was 0.038 µg/mL (≈ 0.0913 µM); in the test on Proteus vulgaris, 0.075 µg/mL (≈ 0.18 µM); with Pseudomonas aeruginosa, 0.038 µg/mL (≈ 0.0913 µM); in the test with Escherichia coli [6], 0.038 µg/mL (≈ 0.0913 µM); against Staphylococcus aureus [7] it was 0.075 µg/mL (≈ 0.18 µM).
Molecule `N=C(N)c1ccc(OCCCCCOc2ccc(C(=N)N)cc2)cc1` [PENTAMIDINE] came in with an MIC in the test with Leishmania major of 5.22 µM (≈ 1.78 µg/mL).
Take `CC1(C)S[C@@H]2[C@H](NC(=O)Cc3ccccc3)C(=O)N2[C@H]1C(=O)O` [PENICILLIN G]: the values for the MIC (in the test on Proteus mirabilis; in test [8]) were 16 µg/mL (≈ 47.8 µM) and 1 µg/mL (≈ 2.99 µM), respectively.
As for `O=C(c1ccc(OCCN2CCCC2)cc1)[C@H]1[C@H](c2ccccc2)C2CS[C@H](c3ccccc3)N2C12C(=O)Nc1ccc(F)cc12` (stereo partly drawn), the IC50 was found to be 5.4 µM with MCF7, 6.2 µM in the test with T47D and 5.8 µM in the test with MDA-MB-231.
In test [9], `CCOC(=O)C1=C(N)Oc2c(c(=O)oc3cc(Cl)ccc23)C12C(=O)Nc1ccc(C)cc12` (stereo not drawn) registered an IC50 of 118 µM.
As for `C[C@]12CC[C@H](O)CC1=CCC1C2CC[C@@]2(C)C1CC[C@@H]2C1=CC2(C(=O)N(Cc3ccc(Cl)c(Cl)c3)c3ccccc32)C(C#N)=C(N)N1` (stereo partly drawn), the IC50 in the test on ECa-109 cell line is 0.3 µM; with SMMC-7721 it was more than 128 µM; in the test with MGC-803, more than 128 µM.
Regarding `CC1(C)CC(=O)C(=C2SC(N)=C(C#N)C3(S2)C(=O)Nc2ccc(Cl)cc23)C(=O)C1` (stereo not drawn), the MIC in the test on Proteus mirabilis worked out at 16 µg/mL (≈ 35.9 µM); in test [8], 2 µg/mL (≈ 4.48 µM).
Regarding `CC(C)=CC(=O)[C@H]1[C@H](c2ccc(Br)cc2)CN(C)[C@]12C(=O)Nc1ccc(Br)cc12`, the figures for the IC50 with A549 and in the test on K562 were 22.9 µM and 5.7 µM, respectively.
For the molecule `CC(C)=CC(=O)[C@H]1[C@H](c2ccc(F)cc2)CN(C)[C@]12C(=O)N(C)c1ccccc12`, the figures for the IC50 in the test with A549 and in the test with K562 were 19.1 µM and 7.2 µM, respectively.
As for `COc1ccc(-n2cc(CN3C(=O)C4(C(C#N)=C(N)OC5=C4C(=O)CCC5)c4ccccc43)nn2)cc1` (stereo not drawn), the MIC was 128 µg/mL (≈ 259 µM) against Candida albicans and 64 µg/mL (≈ 129 µM) against Saccharomyces cerevisiae.
As to `COc1ccc([C@@H]2CN(C)[C@]3(C(=O)N(C)c4ccccc43)[C@]23Oc2cc(O)ccc2C3=O)cc1`, the figures for the Activity in the test on Tobacco mosaic virus [1], in the test on Tobacco mosaic virus [2] and in the test with Tobacco mosaic virus [3] were 55.1%, 47.3% and 51.2%, respectively.
In the case of `CNCC(=O)N[C@@H](CO)C(=O)N[C@H]1[C@H](O)[C@@H](O)[C@H](n2ccc(N)nc2=O)O[C@@H]1C(N)=O` [NINGNANMYCIN], the Activity in the test with Tobacco mosaic virus [1] is on record as 58.8%; in the test on Tobacco mosaic virus [2] it was 55.9%; in the test with Tobacco mosaic virus [3], 57.1%.
